Measured values: ChEMBL document CHEMBL5604063, “ASAP - DENV-2 NS2B-NS3 protease fluorescence dose response” (2024)
Several values for one entry are separate records, joined by “and”; a condition that tells them apart may be missing. Identical values can stand only once.

Experiments:
Genome polyprotein [1] = target: T1, Genome polyprotein (dengue virus type 2, UniProt P29990); assay type: functional, Thailand/16681/1984
Genome polyprotein [2] = target: T1, Genome polyprotein; assay type: functional, Thailand/16681/1984; remark: listed apart in the source

T1 sequence (P29990 1346-1475 limits assumed): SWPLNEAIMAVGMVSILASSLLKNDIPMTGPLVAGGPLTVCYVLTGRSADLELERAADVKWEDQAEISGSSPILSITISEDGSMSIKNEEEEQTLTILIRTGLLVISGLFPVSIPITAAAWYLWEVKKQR
T1 sequence (P29990 1476-2093 limits assumed): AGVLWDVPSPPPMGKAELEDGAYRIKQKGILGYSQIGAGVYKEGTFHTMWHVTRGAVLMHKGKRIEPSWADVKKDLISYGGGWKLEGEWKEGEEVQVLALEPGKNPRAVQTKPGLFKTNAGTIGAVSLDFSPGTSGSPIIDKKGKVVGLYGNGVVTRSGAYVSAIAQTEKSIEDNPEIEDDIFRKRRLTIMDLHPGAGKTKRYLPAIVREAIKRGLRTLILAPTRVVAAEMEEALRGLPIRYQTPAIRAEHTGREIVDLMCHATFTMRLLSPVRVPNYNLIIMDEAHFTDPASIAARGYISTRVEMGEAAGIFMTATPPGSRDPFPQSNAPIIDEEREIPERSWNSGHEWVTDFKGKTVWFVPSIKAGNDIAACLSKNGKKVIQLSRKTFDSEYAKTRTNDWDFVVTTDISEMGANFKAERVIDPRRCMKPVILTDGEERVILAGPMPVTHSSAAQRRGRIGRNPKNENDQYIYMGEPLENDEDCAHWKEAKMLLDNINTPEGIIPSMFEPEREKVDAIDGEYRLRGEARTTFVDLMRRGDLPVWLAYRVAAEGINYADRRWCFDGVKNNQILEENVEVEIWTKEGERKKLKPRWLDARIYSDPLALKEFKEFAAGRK

| SMILES | IC50 (Genome polyprotein [1]) | IC50 (Genome polyprotein [2]) |
| --- | --- | --- |
| CCn1c(=O)c(N2CC[C@H](CO)C2)nc2ccc(C(N)=O)cc21 | 81.7 µM | > 100 µM |
| O=C(Nc1cc(Cl)cc(C(=O)Nc2ccc3c(c2)C[C@H](O)C3)c1)OCc1ccccc1 | > 99.5 µM | > 100 µM |
| CNC(=O)C[C@H](Nc1ccccn1)c1cc(Cl)cc(Br)c1 | > 99.5 µM | > 100 µM |
| N[C@H]1Cc2ccc(NC(=O)c3cc(Cl)cc(NC(=O)OCc4ccccc4)c3)cc2C1 | 33.3 µM | 64.2 µM |
| Cc1nc(-c2ccc(Cl)cc2)sc1C(=O)Nc1cccc(CN)c1 | > 99.5 µM | > 100 µM |
| CCn1c(=O)c(N2CC[C@H](CO)C2)nc2cc(C(N)=O)ccc21 | > 99.5 µM | > 100 µM |
| O=C(Nc1cc(Cl)cc(C(=O)Nc2ccc(S(=O)(=O)N3CCNCC3)cc2)c1)OCc1ccccc1 | > 99.5 µM | > 100 µM |
| Cc1c(C(=O)Nc2cccc(CN)c2)cc(C2CC2)n1C | > 99.5 µM | > 100 µM |
| O=C(Nc1cc(Cl)cc(C(=O)Nc2ccc3c(c2)OCO3)c1)OCc1ccccc1 | > 99.5 µM | > 100 µM |
| NCc1cccc(NC(=O)c2cc(Cl)cc([C@H]3CCCCN3)c2)c1 | > 99.5 µM | > 100 µM |
| CS(=O)(=O)c1cc(CN)cc(NC(=O)c2cc(Cl)cc(NC(=O)OCc3ccccc3)c2)c1 | > 99.5 µM | > 100 µM |
| Cc1c(C(=O)Nc2cccc([C@H]3CCNC3)c2)cc(C2CC2)n1C | > 99.5 µM | > 100 µM |
| CNC(=O)[C@H](Nc1cccc(N)n1)c1cc(Cl)cc(CN)c1 | > 99.5 µM | > 100 µM |
| Cc1c(C(=O)Nc2cccc(CN)c2)cc(C(C)C)n1C | > 99.5 µM | > 100 µM |
| NCCNS(=O)(=O)c1ccc(NC(=O)c2cc(Cl)cc(NC(=O)OCc3ccccc3)c2)cc1 | 33.6 µM | > 100 µM |
| Cc1c(C(=O)Nc2cccc(CCN)c2)cc(C2CC2)n1C | > 99.5 µM | > 100 µM |
| O=C(Nc1cc(Cl)cc(C(=O)Nc2ccc(C3CCNCC3)cc2)c1)OCc1ccccc1 | 15.7 µM and 21.1 µM | 41.3 µM |
| O=C(Nc1cc(Cl)cc(C(=O)Nc2cccc(-c3cn[nH]n3)c2)c1)OCc1ccccc1 | 55.7 µM | > 100 µM |
| CCc1cc(C(=O)Nc2cccc(CN)c2)sc1C | > 99.5 µM | > 100 µM |
| Cc1onc(C(=O)Nc2cccc(CN)c2)c1COc1cccc(F)c1 | > 99.5 µM | > 100 µM |
| NCc1ccc(C#CCO)c(NC(=O)c2cc(Cl)cc(NC(=O)OCc3ccccc3)c2)c1 | 38 µM | > 100 µM |
| Cc1nn(CCO)c(C(F)F)c1C(=O)Nc1cccc(CN)c1 | > 99.5 µM | > 100 µM |
| NCc1cccc(NC(=O)c2c(C(F)(F)F)nc3n2CCCC3)c1 | > 99.5 µM | > 100 µM |

| SMILES | IC50 (Genome polyprotein [1]) | IC50 (Genome polyprotein [2]) |
| --- | --- | --- |
| Cc1cnnc(C(=O)Nc2cccc(CN)c2)c1 | > 99.5 µM | > 100 µM |
| N#CC[C@H](N)c1cccc(NC(=O)c2cc(Cl)cc(NC(=O)OCc3ccccc3)c2)c1 | > 99.5 µM | > 100 µM |
| CCn1c(=O)c(N2CC[C@H](CO)C2)nc2ccc(C(=O)NCc3ccccc3)cc21 | 95.1 µM | > 100 µM |
| O=C(Nc1cc(Cl)cc(C(=O)Nc2ccc(OC3CNC3)cc2)c1)OCc1ccccc1 | 64.2 µM | > 100 µM |
| CSc1cc(Cl)cc(C(=O)Nc2cccc(-n3nn[nH]c3=O)c2)c1 | > 99.5 µM | 78.2 µM |
| Cc1nc(N2CCOCC2)sc1CC(=O)Nc1cccc(CN)c1 | > 99.5 µM | > 100 µM |
| NCCCCc1ccc(NC(=O)c2cc(Cl)cc(NC(=O)OCc3ccccc3)c2)cc1 | 11.8 µM and 19.5 µM | 33.2 µM |
| CS(=O)(=O)c1ccc(CN)cc1NC(=O)c1cc(Cl)cc(NC(=O)OCc2ccccc2)c1 | > 99.5 µM | > 100 µM |
| O=C(O)CCc1ccc(NC(=O)c2cc(Cl)cc(NC(=O)OCc3ccccc3)c2)cc1 | 42.8 µM | 17.7 µM |
| CC(C)c1occ(C(F)(F)F)c1C(=O)Nc1cccc(CN)c1 | > 99.5 µM | > 100 µM |
| NCc1nc(-c2ccc(NC(=O)c3cc(Cl)cc(NC(=O)OCc4ccccc4)c3)cc2)n[nH]1 | 48.2 µM | > 100 µM |
| NCc1cccc(NC(=O)[C@H]2CC(=O)Nc3ccc(Br)cc32)c1 | > 99.5 µM | > 100 µM |
| O=C(Nc1cc(Cl)cc(C(=O)Nc2ccc(-n3nn[nH]c3=O)cc2)c1)OCc1ccccc1 | 13.3 µM and 14.1 µM | 7.45 µM and 7.74 µM |
| Cc1cc(CN)cc(NC(=O)c2cc(C3CC3)n(C)c2C)c1 | > 99.5 µM | > 100 µM |
| O=C(Nc1cc(Cl)cc(C(=O)Nc2ccc([C@H]3CNCCO3)cc2)c1)OCc1ccccc1 | > 99.5 µM | > 100 µM |
| Cn1nc(C(=O)Nc2cccc(CN)c2)cc1C1CC1 | > 99.5 µM | > 100 µM |
| NC[C@H]1C[C@H]1NC(=O)c1cc(Cl)cc(NC(=O)OCc2ccccc2)c1 | > 99.5 µM | > 100 µM |
| CCc1onc(C2CCOCC2)c1C(=O)Nc1cccc(CN)c1 | > 99.5 µM | > 100 µM |
| Cn1cc(C(=O)Nc2cccc(CN)c2)c(-c2cnccn2)n1 | > 99.5 µM | > 100 µM |
| O=C(Nc1cc(Cl)cc(C(=O)Nc2ccc(N3CCNCC3)c(F)c2)c1)OCc1ccccc1 | 74.1 µM | > 100 µM |
| O=C(Nc1cc(Cl)cc(C(=O)Nc2cccc(C(=O)O)c2)c1)OCc1ccccc1 | 42.7 µM | 29.1 µM and 25.3 µM |
| N[C@H]1CCN(c2ccc(NC(=O)c3cc(Cl)cc(NC(=O)OCc4ccccc4)c3)cc2)C1 | 35.4 µM | > 100 µM |
| CNC(=O)[C@H](Nc1cccc(CN)c1)c1cc(Cl)cc(NC(=O)OCc2ccccc2)c1 | > 99.5 µM | > 100 µM |

| SMILES | IC50 (Genome polyprotein [1]) | IC50 (Genome polyprotein [2]) |
| --- | --- | --- |
| NC[C@H]1C[C@@H]1NC(=O)c1cc(Cl)cc(NC(=O)OCc2ccccc2)c1 | > 99.5 µM | > 100 µM |
| NC1CCN(c2ccc(NC(=O)c3cc(Cl)cc(NC(=O)OCc4ccccc4)c3)cc2)CC1 | 39.7 µM | > 100 µM |
| O=C(Nc1cc(Cl)cc(C(=O)Nc2ccc3c(c2)COC3)c1)OCc1ccccc1 | > 99.5 µM | > 100 µM |
| O=C(Nc1cc(Cl)cc(C(=O)Nc2ccc(N3CCCNCC3)cc2)c1)OCc1ccccc1 | 27.6 µM | > 100 µM |
| NCc1cccc(NC(=O)[C@H]2CCCN(C(=O)CC3CC3)C2)c1 | > 99.5 µM | > 100 µM |
| NCc1cccc(NC(=O)c2nc(C3CC3)n(-c3ccccc3Cl)n2)c1 | > 99.5 µM | > 100 µM |
| O=C(Nc1cc(Cl)cc(C(=O)Nc2ccc([C@H]3CCNC3)cc2)c1)OCc1ccccc1 | 19.5 µM and 24.6 µM | 39.4 µM |
| CS(=O)(=O)c1ccc(NC(=O)c2cc(Cl)cc(NC(=O)OCc3ccccc3)c2)cc1 | > 99.5 µM | > 100 µM |
| O=C(Nc1cc(Cl)cc(C(=O)Nc2ccc(CC3CCNCC3)cc2)c1)OCc1ccccc1 | 14 µM and 17.3 µM | 33.3 µM |
| Cc1cc(C(=O)Nc2cccc(CN)c2)c(NC(=O)[C@H]2CCCO2)s1 | > 99.5 µM | > 100 µM |
| NCc1cccc(NC(=O)c2cc(Br)cc(-n3cnnn3)c2)c1 | > 99.5 µM | > 100 µM |
| CNC(=O)C[C@H](Nc1ccccn1)c1cc(Cl)cc(CN)c1 | > 99.5 µM | > 100 µM |
| COc1cc(C(=O)Nc2cccc(CN)c2)cc2cn(C)nc12 | > 99.5 µM | > 100 µM |
| O=C(Nc1cc(Cl)cc(C(=O)Nc2ccc3c(c2)CCNC3)c1)OCc1ccccc1 | 50 µM and 60.1 µM | > 100 µM |
| Cc1oc(C(=O)Nc2cccc(CN)c2)cc1COc1ccccc1 | > 99.5 µM | > 100 µM |
| CN(C)[C@H](C(=O)Nc1cccc(CN)c1)c1cc(Cl)cc(Cl)c1 | > 99.5 µM | > 100 µM |
| NCc1cccc(NC(=O)c2cc(Cl)cc(Cl)c2OCc2ccccc2)c1 | 44.7 µM | 42.6 µM |
| O=C(Nc1cc(Cl)cc(C(=O)Nc2ccc(C3CNC3)cc2)c1)OCc1ccccc1 | 39.2 µM | > 100 µM |
| Cc1c(C(=O)Nc2cccc(C3CCNCC3)c2)cc(C2CC2)n1C | > 99.5 µM | > 100 µM |
| O=C(Nc1cc(Cl)cc(C(=O)Nc2ccc3c(c2)C(=O)OC3)c1)OCc1ccccc1 | > 99.5 µM | > 100 µM |
| Cc1[nH]c2ccc(Br)cc2c1CC(=O)Nc1cccc(CN)c1 | > 99.5 µM | > 100 µM |
| O=C(O)Cc1cccc(NC(=O)c2cc(Cl)cc(NC(=O)OCc3ccccc3)c2)c1 | 74.6 µM | 40 µM |
| NCc1cccc(NC(=O)c2cc(C(F)(F)F)cnc2N2CCOCC2)c1 | > 99.5 µM | > 100 µM |
